From patent publication US20240140941A1, “DERIVATIVE OF 2,5-DIKETOPIPERAZINE COMPOUND, AND PREPARATION METHOD THEREFOR, PHARMACEUTICAL COMPOSITION THEREOF AND USE THEREOF” (DALIAN WZ PROBIOTICS AD HEALTH CO., LTD, priority 2020, published 2024) come the findings set out here.

In general, IC50 refers to the concentration needed to halve the response being measured.

The test system of one assay is BxPC-3. As to the kind of experiment: Inhibition test on cell proliferation (MTT), BxPC-3. Type of assay: cell-based, human. The settings on record: Homo sapiens, BXPC-3, 72 h, read-out: IC50 (nM) BxPC-3. How it is done:
(§1) Tumor cells (NCI-H460, BxPC-3, HT-29, HCC-LM3) in the logarithmic growth phase were digested, centrifuged, and the supernatants were removed. Cells were resuspended by adding fresh culture medium, and counted using a cell counting plate. 100 μL of culture medium (containing cells) was added to a 96-well plate according to the standard of 2000 to 6000 cells per well and incubated in an incubator (37° C., 5% CO2) for 24 hours. After the cells were completely adhered to the wall, the test sample and Plinabulin were diluted to different concentrations using fresh culture medium, and 4 wells were set for each concentration. After 72 hours of drug treatment, the culture medium was removed, and 20 μL of MTT at a concentration of 5 mg/mL was added to each well. After 3-4 hours in the incubator, the MTT was discarded, and 100 μL of DMSO was added to each well, and placed in a 96-well plate shaker to completely dissolve the purple formazan. Subsequently, the absorbance (OD value) was detected at a wavelength of 490 nm using a microplate reader. The experiment also required setting up zero-setting wells (blank culture medium, MTT, DMSO). Cell inhibition rate=1−(OD value of drug-dosed group−OD value of zero-setting group)/(OD value of blank group−OD value of zero-setting group)×100%.

Another assay deals with NCI-H460. As to the kind of experiment: Inhibition test on cell proliferation (MTT), NCI-H460. Type of assay: cell-based, human. How it is done: as §1
Where [1] appears, read: Homo sapiens, NCI-H460, 72 h, read-out: IC50 (nM) NCI-H460, 72 hours of drug treatment, MTT.
Where [2] appears, read: 72 hours of drug treatment, MTT.
Setting [3] is: Homo sapiens, NCI-H460, 72 h, 72 hours of drug treatment, MTT, read-out: IC50 (nM) NCI-H460.

Molecules are shown by their SMILES. Read-outs that look alike come from different tables or passages of the source.

As to `CC(C)c1c(/C=c2\[nH]c(=O)/c(=C/c3cccc(C(=O)c4ccc(F)cc4)c3)[nH]c2=O)ncn1CCCN1CCN(C(=O)C(C)(C)C)CC1` [PLN-2-33, (3Z,6Z)-3-(3-(p-fluorobenzoyl)phenyl)methylene-6-((5-isopropyl-1-(3-N-tert-butyrylpiperazinyl)propylimidazol-4-yl)methylene)piperazine-2,5-dione], the IC50 in the assay with BxPC-3 is 6.39 ± 2.51 nM; with NCI-H460 (setting [1]), 9.91 ± 2 nM.
`CC(C)c1c(/C=c2\[nH]c(=O)/c(=C/c3cc(F)ccc3F)[nH]c2=O)ncn1CCCN1CCN(C)CC1` [PLN-2-24]: the IC50 with BxPC-3 (setting [2]) was determined as 13.19 ± 0.07 nM; in the assay with NCI-H460 (setting [3]), 28.6 ± 1.4 nM.
On to `CC(=O)N1CCN(CCCn2cnc(/C=c3\[nH]c(=O)/c(=C/c4cccc(C(=O)c5ccc(F)cc5)c4)[nH]c3=O)c2C(C)C)CC1` [PLN-2-30, (3Z,6Z)-3-(3-(p-fluorobenzoyl)phenyl)methylene-6-((5-isopropyl-1-(3-N-acetylpiperazinyl)propylimidazol-4-yl)methylene)piperazine-2,5-dione], for which the IC50 is 2.3 ± 0.08 nM in the assay on BxPC-3 (setting [2]) and 3.98 ± 0.33 nM in the assay with NCI-H460 (setting [3]).
Turning to `O=c1[nH]/c(=C\c2ncn(CCCN3CCNCC3)c2C2CC2)c(=O)[nH]/c1=C\c1cccc(Oc2ccc(F)cc2)c1` [PLN-2-19], the IC50 in the assay on NCI-H460 (setting [1]) was 213 ± 12.8 nM.
For `CC(C)c1c(/C=c2\[nH]c(=O)/c(=C/c3cccc(C(=O)c4ccc(F)cc4)c3)[nH]c2=O)ncn1CCCN1CCN(C(=O)C2CCCCC2)CC1` [PLN-2-38, (3Z,6Z)-3-(3-(p-fluorobenzoyl)phenyl)methylene-6-((5-isopropyl-1-(3-N-cyclohexanecarbonylpiperazinyl)propylimidazol-4-yl)methylene)piperazine-2,5-dione], in the assay on NCI-H460 (setting [3]), the IC50 amounted to 7.3 ± 0.44 nM.
Same read-out and setting: in the case of `CC(C)c1c(/C=c2\[nH]c(=O)/c(=C/c3cccc(C(=O)c4ccc(F)cc4)c3)[nH]c2=O)ncn1CCCN1CCN(S(=O)(=O)c2ccccc2)CC1` [PLN-2-43, (3Z,6Z)-3-(3-(p-fluorobenzoyl)phenyl)methylene-6-((5-isopropyl-1-(3-N-phenylmethylsulfonylpiperazinyl)propylimidazol-4-yl)methylene)piperazine-2,5-dione] it was 11.1 ± 0.9 nM; in that of `CC(C)c1c(/C=c2\[nH]c(=O)/c(=C/c3cccc(C(=O)c4ccc(F)cc4)c3)[nH]c2=O)ncn1CCCN1CCN(c2ccc(F)cc2)CC1` [PLN-2-26, (3Z,6Z)-3-(3-(p-fluorobenzoyl)phenyl)methylene-6-((5-isopropyl-1-(3-N-(p-fluorophenyl)piperazinyl)propylimidazol-4-yl)methylene)piperazine-2,5-dione], 50.1 ± 0.69 nM.
With `CC(C)c1c(/C=c2\[nH]c(=O)/c(=C/c3cccc(C(=O)c4ccc(F)cc4)c3)[nH]c2=O)ncn1CCCN1CCN(C(=O)C23CC4CC(CC(C4)C2)C3)CC1` [PLN-2-39, (3Z,6Z)-3-(3-(p-fluorobenzoyl)phenyl)methylene-6-((5-isopropyl-1-(3-N-adamantanecarbonylpiperazinyl)propylimidazol-4-yl)methylene)piperazine-2,5-dione], the IC50 with NCI-H460 (setting [1]) is 37.2 ± 3.61 nM.
`O=c1[nH]/c(=C\c2ncn(CCCN3CCNCC3)c2C2CC2)c(=O)[nH]/c1=C\c1cccc(Oc2ccc(F)cc2)c1` [PLN-2-19-1]: the IC50 in the assay with NCI-H460 (read-out: IC50 (nM) NCI-H460, 72 hours of drug treatment, MTT) is 204 ± 4.24 nM.
Take `CC(C)c1c(/C=c2\[nH]c(=O)/c(=C/c3cccc(C(=O)c4ccc(F)cc4)c3)[nH]c2=O)ncn1CCCN1CCN(Cc2ccccc2)CC1` [PLN-2-25, (3Z,6Z)-3-(3-(p-fluorobenzoyl)phenyl)methylene-6-((5-isopropyl-1-(3-N-benzylpiperazinyl)propylimidazol-4-yl)methylene)piperazine-2,5-dione]: in the assay on NCI-H460 (setting [3]), the IC50 is 18.4 ± 2.95 nM.
With `CN1CCN(CCCn2cnc(/C=c3\[nH]c(=O)/c(=C/c4cccc(Oc5ccc(F)cc5)c4)[nH]c3=O)c2C2CC2)CC1` [PLN-2-23], the IC50 with NCI-H460 (setting [3]) amounted to 158 ± 25.7 nM.
Same read-out and setting: as for `CC(C)c1c(/C=c2\[nH]c(=O)/c(=C/c3ccc(F)cc3)[nH]c2=O)ncn1CCCN1CCOCC1` [PLN-2-11, (3Z,6Z)-3-p-fluorobenzylidene-6-((5-isopropyl-1-(−3-morpholinyl)propylimidazol-4-yl)methylene)piperazine-2,5-dione], the figure is 234 ± 25.7 nM.
